Data from patent US20170304400A1, “METHODS FOR PREVENTING FIBROSIS USING CXCR4 AND/OR CXCR7 BINDING AGENTS” (ViCapsys.Inc, priority 2016, published 2017).

System: non-human primate (NHP)
Assay: Intraperitoneal implant of alginate microbeads in non-human primates: surgical inspection, lavage recovery and biopsy histopathology
Type: in vivo
Procedure: In the first non-human primate (NHP) study with alginate microbeads, two animals received intraperitoneal implants of ˜400,000 microbeads each of (1.6% calcium LVM) alginate containing either 1 μg/ml of recombinant human CXCL12 (“CXCL12^+”) or not (“CXCL12”). Microbeads were prepared using a vibrational encapsulation method using a 200 μm nozzle. Microbeads were on average 426-427 μm in diameter with an error of the mean of approximately 10-15%. The diameter was measured after 2 hours in culture media. Microbeads swell 30-40% after transfer into some media or after implantation. Median roundness was less than the desirable 0.90, ranging from 0.78 in the CXCL12^− microbeads (FIG. 1) to 0.80 in the CXCL12^+ (FIG. 2), but with a skew in roundness reflecting a small but significant number of non-round beads. Microbeads were delivered in a blinded manner to operators. During the implant, primate 0715 received the CXCL12^− implant; primate 1715 received the CXCL12^+ implant. Both animals were implanted using a minimally invasive technique featuring placement of beads in 30 cc of 300 mOsmolar calcium chloride solution in the intraperitoneal space and explanted surgically. Neither of the procedures was eventful. Both animals appeared healthy during the entire period of four weeks following the implantation procedure. The explant procedure for each animal involved surgical opening of the peritoneal cavity, visual inspection of all regions of the mesentery and abdomen/pelvis for bead position, lavage with 100 cc of N-saline to recover free microbeads and peritoneal fluid, and biopsy of tissues where microbeads appeared to be embedded in the tissue. Evaluation was done at 30, 90, and 180 days. Arrows point to adhesions.

Substance: CXCL12: chemokine CXCL12 (also called SDF-1); recombinant human CXCL12 used in the microbeads
- adhesions following surgery or explantation of the capsules (CXCL12 applied into the intraperitoneal cavity in alginate capsules): no adhesions
- long-term appearance of the peritoneum / surgical adhesions (later timepoints (day 90 and day 180), compared to CXCL12^- NHP): more normal and without surgical adhesions
- foreign body responses to embedded microbeads (through 90 days): spare embedded microbeads from foreign body responses
